Active and inactive are the calls of the source. The rule behind the calls is not given here.
Columns and labels:
C2C12 [1] = experiment: Upregulation of mitochondrial function in mouse C2C12 cells assessed as increase in mitochondrial ATP level at 10 uM after 1 hr by ToxGlo assay relative to control; assay type: functional, cell-based
C2C12 [2] = experiment: Upregulation of mitochondrial function in mouse C2C12 cells assessed as increase in mitochondrial oxygen consumption rate at 10 uM after 1 hr relative to control; assay type: functional, cell-based
C2C12 [3] = experiment: Cytotoxicity against mouse C2C12 cells assessed as cell viability up to 100 uM after 24 hrs by CellTox green assay; assay type: cell-based; conditions: c2c12, 24 h

O=C([O-])c1ccc[n+]([C@H]2O[C@H](COC(=O)c3ccc(O)cc3)[C@@H](O)[C@H]2O)c1
Activity (C2C12 [1]): Active
Activity (C2C12 [2]): Active
Activity (C2C12 [3]): Non-toxic
